How the values were obtained:
[1] = tested on: RSD triggered and developed by a trauma or surgical invasion; conditions: literature report; cited from earlier work
[2] = tested on: patients with hemiplegia attributed to cerebrovascular disease (stroke) at Brunnstrom stage III or lower, not yet developing RSD; assay: Test of prevention of onset of post-stroke RSD (Example 1); assay type: in vivo, human
Excerpt: Test subjects were 32 patients with hemiplegia attributed to cerebrovascular disease (stroke) at Brunnstrom stage III or lower in either the upper limb or a finger on admission. Patients already developing RSD (shoulder-hand syndrome) on admission and patients with pain in the shoulder joint or swollen paralyzed limbs were excluded from the test. […] On the other hand, 21 test subjects were classified into a rehabilitation alone group (control group) and compared with the EL administration group. Physical therapy and therapeutic exercise, occupational therapy, and the management of the paralyzed limbs were performed thoroughly in all the cases. […] EL administration was initiated 11 to 59 days after an attack of stroke (25.8 days on average) and continued until 5 months after the attack of stroke. The same observation period was applied to the control group. The test subjects were diagnosed as developing RSD (shoulder-hand syndrome) if they had diffuse pain not localized to the shoulder joint, edema involving skin color changes, skin temperature abnormalities, and range of motion limitations, and the practice of their rehabilitation was restricted. These criteria agreed to Veldman's diagnostic criteria or diagnostic criteria for CRPS-type 1 provided by the International Association for the Study of Pain.
Activities of daily living (ADL) were evaluated on the basis of the Barthel Index (BI) and the range of motion (ROM) of shoulder joint. The movable range of shoulder joint (also referred to as “shoulder ROM”) was regarded as restricted (Shoulder-ROM-restrictions were present.) if either abduction or flexion was restricted in measurement. The test subjects were also examined for sensory impairment, aphasia, and unilateral spatial neglect on admission.
Statistical analysis was conducted with unpaired t-test, Fisher's exact test or Wilcoxon test, and 5% or lower significance level was regarded as being significant.

[3] = tested on: patients with hemiplegia attributed to cerebrovascular disease (stroke) who developed RSD (shoulder-hand syndrome); assay: Test of treatment of post-stroke RSD (Reference Example 1); assay type: in vivo, human
Description: EL was administered after the onset of RSD (shoulder-hand syndrome) in the same use and dose as in Example 1 to 11 patients with hemiplegia attributed to cerebrovascular disease (stroke) at Brunnstrom stage III or lower in either the upper limb or a finger on admission, who developed RSD (shoulder-hand syndrome). These patients were classified into a therapeutic administration group. On the other hand, the EL administration group of Example 1 was compared as a control (preventive administration group) with the therapeutic administration group.

[4] = EL preventive administration group, 20 units i.m. once a week, until 5 months after the attack of stroke
[5] = preventive administration group
[6] = therapeutic administration group

| Compound | Effect on the initial onset of RSD in subjects having no anamnesis of RSD after a trauma or surgical invasion [1] | Incidence of RSD converted to incidence in all patients with hemiplegia attributed to stroke in the facility ([2]; EL administration group) | Incidence of RSD (cases that developed RSD) ([2]; EL preventive administration group, 1 of the 12 cases) | The number of test subjects developing post-stroke RSD: Developed [2, 4] | The number of test subjects developing post-stroke RSD: Not developed [2, 4] | Incidence of RSD when EL administration was initiated within 48 days after stroke ([2]; administration initiated within 48 days after stroke) | Barthel index, Average ± SE (at completion of administration) [2, 5] | Barthel index, Median (at completion of administration) [2, 5] | No RSD, the number of persons (at completion of administration) [2, 5] | Barthel index, Average ± SE (at completion of administration) [3, 6] | Barthel index, Median (at completion of administration) [3, 6] | No RSD, the number of persons (at completion of administration) ([3]; therapeutic administration group (EL after onset of RSD)) |
| --- | --- | --- | --- | --- | --- | --- | --- | --- | --- | --- | --- | --- |
| O=C1O[C@H]([C@@H](O)CO)C(O)=C1O [vitamin C] | preventive effect |  |  |  |  |  |  |  |  |  |  |  |
| 1-butyric acid-7-(L-2-aminobutyric acid)-26-L-aspartic acid-27-L-valine-29-L-alanine-calcitonin [elcatonin] |  | approximately 1.3% | 8.3% | 1 | 11 | 0% | 60.8 ± 9.3 | 72.5 | 11 | 31.8 ± 7.8 | 25 | 0 |

Source: patent publication US20080090767A1, “Agent for prophylaxis of reflex sympathetic dystrophy after cerebral apoplexy” (Asahi Kasei Pharma Corporation, priority 2006, published 2008)
